The values below come from publication PMC12096829, “Maltodextrin transport in the extremely thermophilic, lignocellulose degrading bacterium Anaerocellum bescii (f. Caldicellulosiruptor bescii)” (Journal of Bacteriology, 2025).

The target of assay [1] is T1, Athe_2310 (Anaerocellum bescii, UniProt A0ABY1S743). Kind of assay: DSC thermal shift of Athe_2310 with ɑ-glucan substrates. In kind it is binding. As to conditions: Athe_2310 + sugar; 2.5 mg/mL protein, 5 mM sugar; 50 mM HEPES, 300 mM NaCl pH 7.0. The text has this: (§1) In DSC, proteins are heated at a constant rate to induce thermal denaturation. This can be measured by an increase in the protein’s specific heat capacity Cp(T) as a function of temperature. The melting temperature Tm is defined as the temperature at which the protein attains its maximum heat capacity and becomes fully denatured ([46]). However, the presence of their cognate ligands can induce substrate-binding proteins to adopt a more thermally stable closed conformation, resulting in an increase in Tm ([47]). This ΔTm = |Tm,holo − Tm,apo| difference can be used to determine differential substrate specificity, as preferred ligands that are more tightly bound will yield larger ΔTm values. […] However, other short ɑ-glucans trehalose (ΔTm = 7.23 °C) and maltotriose (ΔTm = 6.63 °C) also yield substantial melting temperature differences. Melting temperature differences are subtler with longer oligosaccharides maltotetraose (ΔTm = 1.57 °C), maltopentaose (ΔTm = 0.95 °C), and maltoheptaose (ΔTm = 0.26 °C) (Fig. 4a). However, as binding of maltose to E. coli MBP is known to increase protein melting temperature by approximately 8 °C, depending on pH, it is unlikely binding is taking place between Athe_2310 and longer maltodextrins (G4–G7) due to their much smaller ΔTm values in comparison ([47], [48]).
T1 sequence (A0ABY1S743 entry or part of it): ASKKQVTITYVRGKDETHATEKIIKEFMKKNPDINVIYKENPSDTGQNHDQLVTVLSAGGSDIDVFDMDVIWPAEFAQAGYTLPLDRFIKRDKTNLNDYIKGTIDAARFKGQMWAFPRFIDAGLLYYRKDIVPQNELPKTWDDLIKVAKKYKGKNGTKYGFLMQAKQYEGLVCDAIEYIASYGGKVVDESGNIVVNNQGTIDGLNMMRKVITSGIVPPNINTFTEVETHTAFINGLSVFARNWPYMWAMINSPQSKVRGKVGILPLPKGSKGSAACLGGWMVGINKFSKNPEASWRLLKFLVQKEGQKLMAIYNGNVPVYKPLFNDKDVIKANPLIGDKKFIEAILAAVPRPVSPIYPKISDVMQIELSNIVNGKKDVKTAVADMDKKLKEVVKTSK
(§2) DSC measurements using a MicroCal PEAQ-DSC (Malvern Panalytical) were performed on Athe_2310 and Athe_2574 in combination with a variety of ɑ-glucans: trehalose (G2), maltose (G2), maltotriose (G3), maltotetraose (G4), maltopentaose (G5), and maltoheptaose (G7). The scan rate was set to […], with a max temperature of 130 °C. Protein was mixed with each sugar, yielding final concentrations of 2.5 mg/mL of protein and 5 mM of sugar. A total of 50 mM HEPES, 300 mM NaCl, pH 7.0, was used as the reference buffer. The heat capacity Cp was plotted against temperature and then normalized by the respective run’s maximum Cp value ( Cp,max ). We defined the melting temperature Tm as the temperature corresponding to Cp,max=Cp(T=Tm) . The melting temperature difference ΔTm=|Tm,holo-Tm,apo| is defined as the absolute difference in melting temperature between the melting temperature of a protein-sugar mix and the same protein with no sugar present.
For orientation: DSC measures the heat that a sample takes up or gives off during a temperature scan.

Assay [2] has as its target T2, Athe_2574 (Anaerocellum bescii, UniProt A0ABY1S640). Kind of assay: DSC thermal shift of Athe_2574 with ɑ-glucan substrates. Type of assay: binding. As to conditions: Athe_2574 + sugar; 2.5 mg/mL protein, 5 mM sugar; 50 mM HEPES, 300 mM NaCl pH 7.0.
From the text: as §1, §2

For assay [3], the target named is T1, Athe_2310. Kind of assay: ITC of Athe_2310 with ɑ-glucan substrates. In kind it is binding. As to the method:
Proteins were dialyzed into the following buffer: 50 mM HEPES, 300 mM NaCl, pH 7.0 via 10 kDa MWCO PES filter 20 mL Spin-X Concentrators (Corning). […] A standard titration experiment consisted of the protein sample at 50 µM and the sugar ligand at 500 µM. The stirring was set at 750 rpm. The 280 µL sample of protein was injected with a priming aliquot of 0.2 µL of sugar ligand, followed by 19 successive injections of 2.0 µL at 120 seconds intervals. Integrated heat effects were determined by non-linear regression using a single-site binding model (Microcal PEAQ-ITC Analysis). The fitted isotherms yield the binding dissociation constant and other thermodynamic parameters calculated using the differential form of the Gibbs Free Energy equation ΔGd=-RTln(Kd) . The slope of the binding isotherm at the equivalence point was used to determine the dissociation constant Kd .

For assay [4], the target named is T2, Athe_2574. Kind of assay: biochemical. Type of assay: binding. As to conditions: result in words. As to the method:
Proteins were dialyzed into the following buffer: 50 mM HEPES, 300 mM NaCl, pH 7.0 via 10 kDa MWCO PES filter 20 mL Spin-X Concentrators (Corning). Measurements were performed at 25 °C using a MicroCal PEAQ Isothermal Titration Calorimeter (Malvern Panalytical). A standard titration experiment consisted of the protein sample at 50 µM and the sugar ligand at 500 µM. The stirring was set at 750 rpm. The 280 µL sample of protein was injected with a priming aliquot of 0.2 µL of sugar ligand, followed by 19 successive injections of 2.0 µL at 120 seconds intervals. Integrated heat effects were determined by non-linear regression using a single-site binding model (Microcal PEAQ-ITC Analysis). The fitted isotherms yield the binding dissociation constant and other thermodynamic parameters calculated using the differential form of the Gibbs Free Energy equation ΔGd=-RTln(Kd) . The slope of the binding isotherm at the equivalence point was used to determine the dissociation constant Kd . The […] Ka is defined as Ka=1/Kd .

Assay [5] has as its system Athe_2310_Mut1 (D69F G279F G278F). Kind of assay: DSC screen of mutant Athe_2310_Mut1 with maltodextrins. Type of assay: binding, Anaerocellum bescii. As to conditions: Fig. S5, result in words.
From the text: We constructed mutant variants Athe_2310_Mut1 (D69F G279F G278F) and Athe_2574_Mut1 (G253F V254F P61W N63F D64F M322A W332A) that each contain point substitutions on residues predicted to be critical for both hydrophobic and hydrophilic contacts. In other words, the mutation of these residues is predicted to confer energetic penalties sufficiently large to prevent substrate binding. […] Similarly, Athe_2574_Mut1, with seven-point mutations due to its greater number of subsites, can no longer recognize maltodextrin substrates of any length (Fig. S6).
as §2, with “The melting temperature difference ΔTm=|Tm,holo-Tm,apo| is defined as the absolute difference in melting temperature between the melting temperature of a protein-sugar mix and the same protein with no sugar present.” left out

Another assay concerns E. coli MBP. Also noted: method as in PMID 9007986, doi:10.1007/s00723-020-01232-y. As to conditions: depending on pH; cited from earlier work.

Broadly, the Tm is the temperature at the midpoint of the melting transition. As usually defined, the Kd is a measure of binding affinity in units of concentration.

Where “and” joins values, the source holds several entries; their conditions need not be identical. Identical values can stand only once.

T2 sequence (A0ABY1S640 entry or part of it): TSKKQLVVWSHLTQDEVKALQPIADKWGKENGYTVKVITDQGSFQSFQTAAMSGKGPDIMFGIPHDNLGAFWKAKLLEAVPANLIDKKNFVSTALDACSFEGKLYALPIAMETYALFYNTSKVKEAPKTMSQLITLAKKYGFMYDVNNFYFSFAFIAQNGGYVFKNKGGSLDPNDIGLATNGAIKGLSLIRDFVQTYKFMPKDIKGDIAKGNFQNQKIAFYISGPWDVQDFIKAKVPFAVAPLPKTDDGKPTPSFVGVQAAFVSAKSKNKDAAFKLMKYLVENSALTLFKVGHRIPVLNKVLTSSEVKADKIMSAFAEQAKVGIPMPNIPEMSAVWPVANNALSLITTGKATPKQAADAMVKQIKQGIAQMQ

With `OC[C@H]1O[C@H](O[C@H]2[C@H](O)[C@@H](O)[C@H](O)O[C@@H]2CO)[C@H](O)[C@@H](O)[C@@H]1O` [Maltose, D-Maltose Monohydrate], the Tm at Athe_2310 [1] is 110.9 °C and 110.85 °C. Further, the Tm at Athe_2574 [2] stood at 97.8 °C. In addition, at Athe_2310 [3], the Kd was 3.93 ± 0.78 µM. Further, on Athe_2310 [3] (Athe_2310, ITC 25 °C), the TΔS was -3.85 kcal/mol, the ΔG is -7.38 kcal/mol and the ΔH was -3.53 ± 0.18 kcal/mol. The Ka at Athe_2310 [3] (Athe_2310, ITC 25 °C, Ka=1/Kd) turned out to be 254000 M⁻¹. Further, the “n (stoichiometry)” value on Athe_2310 [3] (Athe_2310, ITC 25 °C, single-site binding model) is on record as 0.76 ± 0.02. The “ITC enthalpy changes of binding / fit of Kd and n” value at Athe_2574 [4] is given as “too small to fit meaningful”. The “binding to Athe_2310_Mut1” value in assay [5] is reported as “can no longer bind”. Further, the “increase of protein melting temperature on binding” value in the assay with E. coli MBP was “approximately 8 °C”.
